The text below walks through data of ChEMBL document CHEMBL1201862, “PubChem BioAssay data set” (2004).

Each structure is given as a SMILES string. Counter-ions that a name gives are not always drawn. Activity calls are given as the source filed them. Some results are limits rather than exact numbers.

Assay [1] addresses T1, Ubiquitin-conjugating enzyme E2 N (Homo sapiens, UniProt P61088).
T1 sequence (P61088 whole entry): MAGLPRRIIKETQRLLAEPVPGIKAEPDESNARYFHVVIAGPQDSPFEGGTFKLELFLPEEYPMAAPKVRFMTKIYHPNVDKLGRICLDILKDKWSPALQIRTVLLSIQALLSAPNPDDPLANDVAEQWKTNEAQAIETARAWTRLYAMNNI
The assay is classed as functional.

For assay [2], the target named is T2, DNA repair protein RAD52 homolog (Homo sapiens, UniProt P43351).
T2 sequence (P43351 whole entry): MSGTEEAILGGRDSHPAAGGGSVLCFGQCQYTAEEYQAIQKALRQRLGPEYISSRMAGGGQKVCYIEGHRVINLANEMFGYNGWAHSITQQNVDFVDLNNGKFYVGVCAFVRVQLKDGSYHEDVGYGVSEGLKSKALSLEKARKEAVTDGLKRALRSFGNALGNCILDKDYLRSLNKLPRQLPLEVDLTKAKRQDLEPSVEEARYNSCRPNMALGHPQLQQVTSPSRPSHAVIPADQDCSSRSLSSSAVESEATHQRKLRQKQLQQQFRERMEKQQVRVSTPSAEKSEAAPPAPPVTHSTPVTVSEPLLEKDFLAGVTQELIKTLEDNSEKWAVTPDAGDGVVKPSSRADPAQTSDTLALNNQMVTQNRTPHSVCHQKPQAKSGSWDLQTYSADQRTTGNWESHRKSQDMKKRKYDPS
The assay is classed as functional, biochemical.

The nature of assay [3]: CellTiter-Glo luminescence survival assay, SW480 colon tumor line, concentration-response curve, half-maximal inhibitory concentration (AID 1117338). The assay is classed as functional.
The nature of assay [4]: RKO cell viability reduction, dose response, CellTiter-Glo luminescence (AID 1117322). The assay is classed as functional.
The nature of assay [5]: cytotoxicity toward HCT116 cells – cell-based, CellTiter-Glo luminescence, IC50, dose response (AID 1117332). The assay is classed as functional. The note with it: HCT-116.
The nature of assay [6]: SNU-C1 cell viability reduction, dose response, CellTiter-Glo luminescence (AID 1117323). The assay is classed as functional, cell-based.
A short description of assay [7]: cytotoxicity toward Colo320 cells – cell-based, CellTiter-Glo luminescence, IC50, dose response (AID 1117334). The assay is classed as functional. Particulars: COLO 320.
A short description of assay [8]: cytotoxicity toward HT-29 cells – cell-based, CellTiter-Glo luminescence, IC50, dose response (AID 1117330). The assay is classed as functional.
Assay [9] is described as follows: Reduced DLD-1 viability, concentration-response, CellTiter-Glo luminescence (AID 1117352). The assay is classed as functional.
The nature of assay [10]: HCT116 cell viability decrease, GSK3B pretreatment – CellTiter-Glo, IC50, dose response (AID 1117339). The assay is classed as functional. The note with it: HCT-116.
The target in another assay is T3, Estrogen receptor (Homo sapiens, UniProt P03372).
T3 sequence (P03372 whole entry): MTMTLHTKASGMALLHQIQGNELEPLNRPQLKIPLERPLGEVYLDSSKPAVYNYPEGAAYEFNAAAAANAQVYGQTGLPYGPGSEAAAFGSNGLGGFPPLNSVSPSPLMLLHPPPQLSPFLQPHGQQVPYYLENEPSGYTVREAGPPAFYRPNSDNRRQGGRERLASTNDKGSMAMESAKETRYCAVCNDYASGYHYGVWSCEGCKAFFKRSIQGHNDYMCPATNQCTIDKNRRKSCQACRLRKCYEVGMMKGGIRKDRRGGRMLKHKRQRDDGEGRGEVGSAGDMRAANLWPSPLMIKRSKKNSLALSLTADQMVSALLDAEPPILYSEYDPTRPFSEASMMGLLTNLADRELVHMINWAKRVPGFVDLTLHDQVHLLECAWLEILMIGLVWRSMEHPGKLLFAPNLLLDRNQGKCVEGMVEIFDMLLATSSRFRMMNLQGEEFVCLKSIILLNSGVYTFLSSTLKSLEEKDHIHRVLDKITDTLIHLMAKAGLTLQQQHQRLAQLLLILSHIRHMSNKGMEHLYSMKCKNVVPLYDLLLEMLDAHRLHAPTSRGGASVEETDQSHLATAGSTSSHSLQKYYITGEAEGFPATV

In a further assay the target is Prothrombin (Homo sapiens, UniProt P00734). The experiment in a line: Thrombin 1536 HTS Dose Response Confirmation. [Related pubchem assays: 1046 (Thrombin 1536 HTS; hits were confirmed in this assay)]. The assay is classed as functional.
For the next assay, the target named is Estrogen receptor beta (Homo sapiens, UniProt Q92731).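 Also: recombinant ER-beta bound to coactivator SRC1 peptide in presence of estradiol agonist; inhibitors block coactivator peptide binding and lower the FRET signal.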
Assay [11] deals with T4, Heat shock factor protein 1 (Mus musculus, UniProt P38532).
T4 sequence (P38532 whole entry): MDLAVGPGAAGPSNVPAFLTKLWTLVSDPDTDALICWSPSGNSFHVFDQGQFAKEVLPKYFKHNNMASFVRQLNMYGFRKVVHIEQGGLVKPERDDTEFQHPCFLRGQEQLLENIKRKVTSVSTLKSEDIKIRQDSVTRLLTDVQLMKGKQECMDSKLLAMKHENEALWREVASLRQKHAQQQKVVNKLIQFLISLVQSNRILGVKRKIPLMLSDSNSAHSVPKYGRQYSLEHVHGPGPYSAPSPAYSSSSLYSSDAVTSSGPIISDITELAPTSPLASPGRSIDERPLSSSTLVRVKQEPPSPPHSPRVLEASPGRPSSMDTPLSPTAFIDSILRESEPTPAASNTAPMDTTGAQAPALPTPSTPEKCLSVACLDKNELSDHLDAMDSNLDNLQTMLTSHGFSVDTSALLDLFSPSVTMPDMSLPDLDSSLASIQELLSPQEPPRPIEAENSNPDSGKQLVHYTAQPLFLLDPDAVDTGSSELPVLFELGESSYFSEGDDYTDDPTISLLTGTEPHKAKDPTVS
The experiment in a line: decrease of HSF1-responsive luciferase luminescence – cell-based, NIH3T3, dose retest, confirmation (AID 2382).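 Also: NIH3T3 fibroblasts with HSF1-driven luciferase reporter stressed by proteasome inhibitor MG132; luminescence from HSF1-driven luciferase expression after 8 hours of MG132 stress.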 The assay is classed as functional.

Assay [12] concerns the target T5, High affinity choline transporter 1 (Homo sapiens, UniProt Q9GZV3).
T5 sequence (Q9GZV3 whole entry): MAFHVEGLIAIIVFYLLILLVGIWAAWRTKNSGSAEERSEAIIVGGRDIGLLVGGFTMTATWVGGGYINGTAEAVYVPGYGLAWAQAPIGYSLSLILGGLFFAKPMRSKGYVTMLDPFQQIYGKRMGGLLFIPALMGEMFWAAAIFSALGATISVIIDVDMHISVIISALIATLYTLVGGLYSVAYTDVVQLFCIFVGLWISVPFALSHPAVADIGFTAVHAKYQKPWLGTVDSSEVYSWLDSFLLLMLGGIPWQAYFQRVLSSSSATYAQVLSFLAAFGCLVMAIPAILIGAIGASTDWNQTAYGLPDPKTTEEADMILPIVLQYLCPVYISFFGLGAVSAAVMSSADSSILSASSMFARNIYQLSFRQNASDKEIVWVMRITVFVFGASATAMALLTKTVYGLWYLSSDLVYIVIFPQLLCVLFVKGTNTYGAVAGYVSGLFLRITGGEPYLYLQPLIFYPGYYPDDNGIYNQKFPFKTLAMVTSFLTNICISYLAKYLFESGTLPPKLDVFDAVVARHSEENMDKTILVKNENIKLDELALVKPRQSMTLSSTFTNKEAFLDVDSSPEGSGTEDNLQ
The experiment in a line: human choline transporter blockers, potency – cell-based, 5-point CRC, membrane potential dye, dose response (AID 504840). The assay is classed as functional.

Assay [13] deals with NAD-dependent protein deacylase sirtuin-5, mitochondrial (Homo sapiens, UniProt Q9NXA8). The assay is described as follows: sirtuin-5 deacylation blockers, concentration series – biochemical, fluorescence imaging, cherry-pick, set 5, dose response (AID 720591).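 Also: desuccinylation of succinyl peptide AMC substrate read as fluorescence after trypsin release; potency of inhibitors that lower fluorescence and may act on trypsin instead.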
The next assay addresses Cytochrome P450 2D6 (Homo sapiens, UniProt P10635).
Another assay has as its target T6, Cytochrome P450 1A2 (Homo sapiens, UniProt P05177).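 Also: PubChem cytochrome P450 panel assay, CYP1A2 panel member.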
T6 sequence (P05177 whole entry): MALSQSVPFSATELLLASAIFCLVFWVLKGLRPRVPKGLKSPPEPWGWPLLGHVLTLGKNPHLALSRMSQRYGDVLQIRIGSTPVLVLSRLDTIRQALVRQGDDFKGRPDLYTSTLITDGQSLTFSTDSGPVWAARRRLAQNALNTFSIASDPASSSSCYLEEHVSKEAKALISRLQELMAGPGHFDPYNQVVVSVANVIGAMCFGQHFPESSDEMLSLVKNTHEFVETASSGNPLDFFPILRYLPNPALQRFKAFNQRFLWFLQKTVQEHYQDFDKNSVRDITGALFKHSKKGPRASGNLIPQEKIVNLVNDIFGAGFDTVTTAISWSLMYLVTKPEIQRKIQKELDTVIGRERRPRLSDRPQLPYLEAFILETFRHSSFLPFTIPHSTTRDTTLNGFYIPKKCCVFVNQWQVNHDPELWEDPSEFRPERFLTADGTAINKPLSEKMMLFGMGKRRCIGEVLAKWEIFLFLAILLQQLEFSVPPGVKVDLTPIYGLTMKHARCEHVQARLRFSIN

Chain of Cytochrome P450 2D6 (P10635 whole entry): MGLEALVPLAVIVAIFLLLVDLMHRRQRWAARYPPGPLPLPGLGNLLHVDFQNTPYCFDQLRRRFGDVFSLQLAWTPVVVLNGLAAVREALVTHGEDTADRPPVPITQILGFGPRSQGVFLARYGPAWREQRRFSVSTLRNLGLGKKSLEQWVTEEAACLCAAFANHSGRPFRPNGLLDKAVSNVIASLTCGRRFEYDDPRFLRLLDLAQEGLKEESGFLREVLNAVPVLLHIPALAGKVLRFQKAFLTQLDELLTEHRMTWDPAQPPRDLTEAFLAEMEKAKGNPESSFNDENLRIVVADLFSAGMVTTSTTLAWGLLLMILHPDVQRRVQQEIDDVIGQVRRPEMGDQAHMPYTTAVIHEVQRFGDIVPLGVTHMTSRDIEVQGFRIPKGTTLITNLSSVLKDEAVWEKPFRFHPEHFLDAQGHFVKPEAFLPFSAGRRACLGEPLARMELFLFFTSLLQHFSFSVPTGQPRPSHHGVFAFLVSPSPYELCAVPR
Chain of NAD-dependent protein deacylase sirtuin-5, mitochondrial (Q9NXA8 whole entry): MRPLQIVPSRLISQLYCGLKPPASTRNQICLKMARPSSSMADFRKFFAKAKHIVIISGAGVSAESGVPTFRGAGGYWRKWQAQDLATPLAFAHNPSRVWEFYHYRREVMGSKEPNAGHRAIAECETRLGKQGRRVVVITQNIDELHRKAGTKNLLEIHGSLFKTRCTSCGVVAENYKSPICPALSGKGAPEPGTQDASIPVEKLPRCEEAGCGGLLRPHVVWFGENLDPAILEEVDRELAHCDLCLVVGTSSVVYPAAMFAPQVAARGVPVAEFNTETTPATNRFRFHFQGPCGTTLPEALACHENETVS
Chain of Estrogen receptor beta (Q92731 whole entry): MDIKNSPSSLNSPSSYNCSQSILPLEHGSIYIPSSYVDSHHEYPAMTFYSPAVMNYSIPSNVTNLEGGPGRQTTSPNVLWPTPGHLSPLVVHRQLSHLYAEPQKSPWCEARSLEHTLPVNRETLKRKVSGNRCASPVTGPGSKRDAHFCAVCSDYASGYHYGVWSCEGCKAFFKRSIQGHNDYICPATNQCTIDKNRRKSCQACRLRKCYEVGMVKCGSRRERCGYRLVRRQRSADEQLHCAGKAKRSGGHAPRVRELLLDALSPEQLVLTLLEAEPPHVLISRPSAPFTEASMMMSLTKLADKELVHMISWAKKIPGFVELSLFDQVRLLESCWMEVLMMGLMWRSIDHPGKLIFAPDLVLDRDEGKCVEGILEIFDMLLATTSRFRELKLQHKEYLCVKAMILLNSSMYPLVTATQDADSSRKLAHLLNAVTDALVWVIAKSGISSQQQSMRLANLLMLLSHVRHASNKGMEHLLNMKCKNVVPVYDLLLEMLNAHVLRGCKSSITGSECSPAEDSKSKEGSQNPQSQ

`CN1CCN(C2Cc3ccccc3Sc3ccc(Cl)cc32)CC1` (centres undefined): the IC50 in [1] was > 20 µM (inactive); in [3], 6.31 µM (inactive); in assay [4], > 20 µM (inactive); in assay [5], 9.17 µM (inactive); in assay [6] it was 7.87 µM (inactive); in [7], > 6.67 µM (inactive). Further, the IC50 was 8 µM (inactive) in [8], > 20 µM (inactive) in [9] and 8.4 µM (inactive) in assay [10]. Further, the AC50 in [2] is 22.5 µM (active).
Turning to `C=CCn1c(SCC(=O)NC2CCCCC2)nnc1C(C)NC(=O)c1cccs1` (centres undefined), the IC50 against Estrogen receptor was > 50 µM (not active).
As to `Cc1nc2ccccc2c(=O)n1NC(=O)c1cc(Br)ccc1Cl`, at Prothrombin, the IC50 was > 50 µM (not active).
Consider `Cc1nn(Cc2ccccc2Cl)c(C)c1C(=O)NCc1ccco1`, for which the IC50 against Estrogen receptor beta is reported as > 50 µM (not active).
Turning to `Cc1occc1C(=O)Nc1cc(C(F)(F)F)ccc1Cl`, the EC50 in assay [11] is reported as > 195 µM (not active). In addition, on Prothrombin, the IC50 is given as > 50 µM (not active).
Turning to `Cc1ccc(-c2nc(N)n(C(=O)Cc3ccccc3)n2)cc1`, the IC50 at Prothrombin is 1.82 µM (active).
With `Nc1nc(-c2cccnc2)nn1C(=O)c1ccccc1Cl`, the IC50 on Prothrombin is 0.0831 µM (active).
Take `CCCCCCOC(=O)c1cccnc1`: the IC50 in [3], in assay [4], in assay [5], in assay [6], in [7] and in [8] was > 20 µM (inactive) in each case. For the same compound, the IC50 in assay [9] and in [10] was > 20 µM (inactive) throughout.
`Cc1cccc(NC2=NC(=O)/C(=C3/C(=O)N(C)c4ccccc43)S2)c1C`: the IC50 at Estrogen receptor is recorded as 32.9 µM (not active).
For the compound `Cc1nn(-c2ccccc2)c2nc(O)cc(C(F)(F)F)c12`, the IC50 in assay [12] is 7.1 µM (active). Also, in [13], the AC50 was > 30 µM (inactive).
Turning to `CN(C)[C@@H](CCOc1cccc2ccccc12)c1ccccc1` [DAPOXETINE], the IC50 in assay [3] was > 20 µM (inactive); in assay [4], 8.11 µM (inactive); in assay [5], > 20 µM (inactive); in assay [6] it was 12.8 µM (inactive); in assay [7], > 20 µM (inactive); in assay [8], > 20 µM (inactive). The IC50 in assay [9] was > 20 µM (inactive); in assay [10] it was 9.86 µM (inactive).
As to `CC(=O)NC(=O)c1ccccc1O` [SALACETAMIDE], the IC50 in [3], in [4], in assay [5], in assay [6], in [7] and in assay [8] was > 20 µM (inactive) each time. Further, the IC50 in [9] and in assay [10] was > 20 µM (inactive) throughout.
`CN1CCN(CCCN2c3ccccc3Sc3ccc(S(=O)(=O)N(C)C)cc32)CC1` [THIOPROPERAZINE MESYLATE]: the IC50 in [3] is > 20 µM (inactive); in assay [4], 5.99 µM (inactive); in [5] it was > 20 µM (inactive); in assay [6] it was 2.12 µM (active); in [7] it was 8.17 µM (inactive); in [8], > 20 µM (inactive). The IC50 is 14.6 µM (inactive) in assay [9] and > 20 µM (inactive) in assay [10]. The figures for the AC50 at Cytochrome P450 2D6 and at Cytochrome P450 1A2 were 6.31 µM (inconclusive) and 12.6 µM (inconclusive), respectively.
